Laboratory results as given in article PMC11613437, “Prioritization of Eleven-Nineteen-Leukemia Inhibitors as Orally Available Drug Candidates for Acute Myeloid Leukemia” (Journal of Medicinal Chemistry, 2024).
Values joined by “and” are separate entries in the source; they are usually repeats but may differ in a detail not shown here. Equal entries are not always repeated.

Columns and labels:
ENL YEATS = molecular target: T1, ENL YEATS (Homo sapiens, UniProt Q03111); experiment: AlphaScreen assay with biotinylated ENL-S1 peptide; settings: inhibition of ENL YEATS binding to ENL-S1 peptide; mean ± SD, n = 3; read-out: Alpha IC50 (nM) for ENL YEATS
T1 construct: final concentrations of 100 nM His-ENL YEATS, 100 nM Biotin-ENL-S1
T1 sequence (Q03111 1-138 limits assumed): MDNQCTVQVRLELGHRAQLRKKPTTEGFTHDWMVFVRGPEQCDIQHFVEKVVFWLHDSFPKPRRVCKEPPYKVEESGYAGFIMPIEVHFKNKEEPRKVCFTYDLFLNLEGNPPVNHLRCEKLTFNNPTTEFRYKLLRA
Procedure: The AlphaScreen assay was carried out in 384-well plates. Manual assay setup was performed in a 40 μL reaction buffer (50 mM HEPES pH 7.4, 100 mM NaCl, 0.1% bovine serum albumin, and 0.05% CHAPS) with final concentrations of 100 nM His-ENL YEATS, 100 nM Biotin-ENL-S1, and 20 μg/mL of AlphaScreen donor and acceptor beads. The protein, peptide, and compounds were mixed and incubated for 1 h at room temperature and then incubated for 30 min in dark after adding the α beads. AlphaScreen-signals were detected by a multimode microplate reader (BioTeK Synergy Neo2) equipped with an Alpha-laser (PerkinElmer).

[1] = In vitro metabolic stability assay in HLM; format: in vitro ADME, human; settings: for half-life / half-life at 1 h: read-out: Liver Microsome t1/2; for parent compound remaining after 60 min incubation in HLM: in the presence of NADPH
Procedure: At 0, 5, 15, 30, 45, and 60 min, 200 μL acetonitrile (with the internal standard diclofenac as 10 μg/mL) was added to terminate the reaction, the remaining compound was analyzed by HPLC-MS/MS.

NLuc-ENL YEATS = molecular target: T2, NLuc-ENL YEATS (Homo sapiens, UniProt Q03111); experiment: ENL-NanoBRET inhibitor competitive assay; format: cell-based; settings: for IC50: HEK293T cells stably expressing NLuc-ENL YEATS, 1 μM Tracer 2, 2 h, mean ± SD, n = 3; for reduction in NanoBRET signal: concentrations up to 80 μM
T2 construct: DNA encoding the ENL YEATS domain (aa 1–148) was cloned into an NLuc containing plasmid; expressed in transfected cells
T2 sequence (Q03111 1-148): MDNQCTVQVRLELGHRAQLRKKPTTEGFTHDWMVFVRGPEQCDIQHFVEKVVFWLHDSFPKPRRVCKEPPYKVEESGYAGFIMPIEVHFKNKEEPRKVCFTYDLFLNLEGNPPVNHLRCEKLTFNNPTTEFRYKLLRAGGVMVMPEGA
Procedure: Approximately 1.8 × 10^4 HEK293T cells (100 μL) stably expressing NLuc-ENL YEATS were seeded into a white nonbinding 96-well assay plate and incubated overnight at 37 °C in a humidified 5% CO2 atmosphere. After removal of the medium, the cells were added with a tracer (with or without excess of unlabeled compound) in the Opti-MEM with 0.1% DMSO. After incubation at 37 °C for 2 h the assay plate was equilibrated at room temperature for 15 min. For BRET detection, the NanoGlo Substrate and the extracellular NanoLuc inhibitor (Promega, N2160) were diluted with Opti-MEM as described in protocol to afford detection solution. 50 μL of the detection solution was added per well and the plate was incubated for 3 min at room temperature. The donor emission was measured at 450 nm and the acceptor emission at 610 nm using a BioTek SYNERGY neo2 multimode reader. The BRET ratio was calculated according to the following formula: BRET ratio = [(acceptorsample/donorsample) – (acceptorno-tracer control/donorno-tracer control)] × 1000.
Sample procedures were followed for cell seeding as described in the previously described tracer affinity assay. After removal of the medium, the cells were added with a tracer in the medium (1.1 μM, 100 μL) and varied concentrations of a test compound in 0.1% DMSO (10 μL). The plate was thoroughly mixed on an orbital shaker for 15 s at 900 rpm. Then the cells were incubated at 37 °C, 5% CO2 for 2 h for BRET ratio detection as described previously.

[2] = Log D at pH 7.4 (chromatographic procedure); format: physicochemical; settings: n-octanol / aqueous buffer pH 7.4, pH 7.4
Procedure: Log D at 7.4, which is a partition coefficient between n-octanol and aqueous buffer pH 7.4 of the compounds was measured on the chromatographic procedure whose condition was developed based on a published method.[35]

[3] = In vitro stability assay in human plasma; format: in vitro ADME; settings: 37 °C; for Plasma % of parent compound remaining (after 2h incubation): 5 μM, mean ± SD, n = 3
Procedure: The in vitro stability analysis of a test compound was initiated by the addition of the test compound to 90 μL of prewarmed (37 °C) human plasma with a final concentration of 5 μM. All assays were performed in a plate shaker at 37 °C and conducted in triplicate. At 0, 5, 15, 30, 60, and 120 min, 400 μL acetonitrile (with the internal standard diclofenac as 10 μg/mL) was added to deproteinize the plasma and terminate the reaction, the remaining compound was then analyzed by HPLC-MS/MS.

MV4-11 cells = experiment: Anti-proliferation assay, MV4-11; format: cell-based; settings: 1 μM, approximately 2 weeks
Procedure: (§1) Cell proliferation assays were carried out in a 96-well tissue culture plate at 2 × 10^4 cells/well for all cell lines except in 200 μL with a compound added as 1:1000 dilution of DMSO stocks in triplicate. Culture density was determined every 3–4 days using the countess automated cell counter, after which 2 × 10^4 live cells were reseeded in fresh media and compound. The cumulative cell count was achieved by back calculation.

[4] = Cell toxicity assay (CCK-8), MOLM-13; format: cell-based; settings: human, MOLM-13 cells, 8 day treatment, n = 3; read-out: CC50 MOLM-13 (Cellular IC50, 8-days incubation)
Procedure: (§2) Approximately 1 × 10^4 JURKAT, MOLM-13, MV4-11 and HEK293T cells in RPMI 1640 (no phenol red) (100 μL) were added to a 96-well plate and treated with DMSO or a compound at indicated concentrations for 72 h or 8 days. Cell viability was measured using the CCK-8 kit (Abcam, ab228554) according to the manufacturer’s instructions.

MOLM-13 cells [5] = experiment: Cell toxicity assay (CCK-8), MOLM-13; format: cell-based
Procedure: as §2

MOLM-13 cells [6] = experiment: Anti-proliferation assay, MOLM-13; format: cell-based; settings: 1 μM, approximately 2 weeks
Procedure: as §1

[7] = Cell toxicity assay (CCK-8), Jurkat; format: cell-based; settings: human, Jurkat cells; 8 day treatment, n = 3; read-out: CC50 Jurkat (Cellular IC50, 8-days incubation)
Procedure: as §2

ENL YEATS domain = molecular target: T3, ENL YEATS domain (Homo sapiens, UniProt Q03111); experiment: Biolayer interferometry (BLI); format: binding; settings: biotinylated ENL YEATS on SSA biosensors, 1:1 model
T3 construct: Biotinylated-ENL YEATS was immobilized onto SSA biosensors; biotin (biotinylated)
T3 sequence (Q03111 1-138 limits assumed): T1 sequence (Q03111 1-138 limits assumed)
Procedure: Superstreptavidin biosensors were first incubated in an assay buffer (20 mM Tris, pH 7.8, 300 mM NaCl, 0.05% Tween 20, 0.1% DMSO) for 15 min. Sensors were coated with 40–60 μg/mL of biotinylated ENL for 15 min at room temperature. Inhibitors were serially diluted across a 96-well plate in a volume of 200 μL. Association of samples to either ENL- or uncoated reference sensors was measured over 300 s and dissociation over 300 s with baseline measurements (buffer only) for 300 s. All assays were run with continuous 1000 rpm shaking. Data were analyzed using the OctetRED data analysis software with reference subtraction in which reference uncoated sensors and reference samples were subtracted. Then, global kinetic fit was performed for all sonogram curves with a 1:1 model to get KD values.

[8] = Cell toxicity assay (CCK-8), HEK293T; format: cell-based; settings: human, HEK293T cells; 72 h (3-days) treatment, n = 3; read-out: CC50 HEK293T (Cellular IC50, 3-days incubation)
Procedure: as §2

[9] = Cell toxicity assay (CCK-8), MV4-11; format: cell-based; settings: human, MV4-11 cells, 8 day treatment, n = 3; read-out: CC50 MV4-11 (Cellular IC50, 8-days incubation)
Procedure: as §2

[10] = human, human liver microsomes, pH 7.4, HLM 0.5 mg/mL, NADPH 1 mM, mean ± SD, n = 3, read-out: Liver Microsome CLint, pred
[11] = human, human liver microsomes, pH 7.4, HLM 0.5 mg/mL, NADPH 1 mM, mean ± SD, n = 3

CLint scaled at 1 h [1, 10] [mL/min/kg] | half-life at 1 h [1, 11] [h] | IC50 (NLuc-ENL YEATS) [µM] | chromatographic logD [2] | Plasma % of parent compound remaining (after 2h incubation) [3] | SMILES | further results
 |  |  |  |  | CC(C)[C@H]1CCN1Cc1ccc(CNC(=O)c2ccc3nncn3c2)cc1 [13 (R), (R)-N-(4-((2-Isopropylazetidin-1-yl)methyl)benzyl)-[1,2,4]triazolo[4,3-a]pyridine-6-carboxamide] | IC50 (ENL YEATS): 2260 nM
 |  |  |  |  | CC(C)[C@@H]1CCN1Cc1ccc(CNC(=O)c2ccc3nncn3c2)cc1 [13 (S), (S)-N-(4-((2-isopropylazetidin-1-yl)methyl)benzyl)-[1,2,4]triazolo[4,3-a]pyridine-6-carboxamide] | IC50 (ENL YEATS): 970 nM
10.9 | 2.76 ± 0.639 | 5.67 | 0.89 | 89.11 ± 6.07% | CC(C)[C@@H]1CCN1Cc1cc2cnc(NC(=O)c3ccc4nncn4c3)cc2[nH]1 [SR-C-107 (S), (S)-N-(2-((2-Isopropylazetidin-1-yl)methyl)-1H-pyrrolo[3,2-c]pyridin-6-yl)-[1,2,4]triazolo[4,3-a]pyridine-6-carboxamide] | IC50 (ENL YEATS): 1380 nM; half-life [1, 11]: 2.75 h
8.69 ± 0.01 | 3.37 ± 0.421 | 1.48 | 0.82 | 90.77% and 90.77 ± 4.67% | CC(C)C1CCN1Cc1cc2cnc(NC(=O)c3ccc4nncn4c3)cc2[nH]1 (centres unmarked) [SR-C-107] | IC50 (ENL YEATS): 121 ± 28 nM; inhibition of MV4-11 cell proliferation (MV4-11 cells): strong inhibition of cell proliferation; IC50 at 8 days [4]: < 4 µM; IC50 (MOLM-13 cells [5]; 8 day treatment, n = 3, read-out: CC50 MOLM-13 (Cellular IC50, 8-days incubation)): 2.57 ± 0.28 µM; inhibition of MOLM-13 cell proliferation (MOLM-13 cells [6]): strong inhibition of cell proliferation; IC50 at 8 days [7]: > 64 µM; Kd (ENL YEATS domain): 565 nM; IC50 at 72 h [8]: > 64 µM
3.51 | 8.29 ± 0.671 | 2.36 | 0.13 | 82.54 ± 6.09% | O=C(Nc1cc2[nH]c(CN3CCC3C3CC3)cc2cn1)c1ccc2nncn2c1 [YR-D-121] | parent compound remaining after 60 min incubation in HLM [1]: over 90%; IC50 at 8 days [4]: 6.96 µM; IC50 at 8 days [7]: > 64 µM; Kd (ENL YEATS domain): 1340 nM; IC50 at 8 days [9]: 14.2 µM; degradation after 2 h incubation in human plasma [3]: approximately 15%; IC50 at 72 h [8]: > 64 µM
22.2 ± 4.76 | 1.34 ± 0.292 | 1.26 | 1.19 | 84.81 ± 6.84% | CSc1ccc(CNC(=O)c2ccc3nncn3c2)cc1 [inhibitor 1] | parent compound remaining after 60 min incubation in HLM [1]: about 60%; degradation after 2 h incubation in human plasma [3]: approximately 15%
 |  | > 80 | 0.28 |  | CN(C)Cc1ccc(CNC(=O)c2ccc3nncn3c2)cc1 [inhibitor 7] | 
 |  | > 80 | 0.11 |  | O=C(NCc1ccc(CN2CCCCC2)cc1)c1ccc2nncn2c1 [inhibitor 8] | reduction in NanoBRET signal (NLuc-ENL YEATS): minimal reductions in NanoBRET signal
 |  | > 80 | -0.1 |  | O=C(NCc1ccc(CN2CCOCC2)cc1)c1ccc2nncn2c1 [inhibitor 9] | reduction in NanoBRET signal (NLuc-ENL YEATS): minimal reductions in NanoBRET signal
 |  |  | 0.17 |  | O=C(NCc1ccc(CN2CCC2)cc1)c1ccc2nncn2c1 [inhibitor 11] | reduction in NanoBRET signal (NLuc-ENL YEATS): minimal reductions in NanoBRET signal
21.6 ± 1.89 | 1.35 ± 0.117 | 1.34 | -0.07 | 85.32 ± 3.24% | CC1CCN1Cc1ccc(CNC(=O)c2ccc3nncn3c2)cc1 (centres unmarked) [inhibitor 12] | parent compound remaining after 60 min incubation in HLM [1]: about 60%; degradation after 2 h incubation in human plasma [3]: approximately 15%
 |  | > 20 | 0.42 | 97.60 ± 0.74% | CC(C)(C)C1CCN1Cc1ccc(CNC(=O)c2ccc3nncn3c2)cc1 (centres unmarked) [inhibitor 14] | CLint scaled [1, 10]: 2.42 ± 0.14 mL/min/kg; half-life [1, 11]: 12 ± 0.741 h; inhibition at 64 µM (MOLM-13 cells [5]; Homo sapiens, MOLM-13, 64 μM, 72-h treatment, Figure S8f, read-out: growth inhibition in MOLM-13 cells): ~30%
6.93 | 4.23 ± 0.603 | 3.26 | 0.29 |  | O=C(NCc1cccc(CN2CCC2)c1)c1ccc2nncn2c1 [inhibitor 15] | parent compound remaining after 60 min incubation in HLM [1]: over 90%
9.95 | 2.92 ± 0.22 |  | 0.96 | 88.42 ± 4.98% | O=C(NCc1ccc(CNc2ncc(F)cn2)cc1)c1ccc2nncn2c1 [inhibitor 24] | degradation after 2 h incubation in human plasma [3]: approximately 15%
